# In PubChem BioAssay (NCI):
#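 96-well plates; 48 h exposure; 5 concentrations. Endpoints by linear interpolation between flanking doses. Not reached: highest tested concentration assigned. Abbreviation: GI50, concentration required for 50% inhibition of growth. At the TGI there is no net growth.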
# Experiments:
# Test in all cases: DTP human tumour cell line panel, 48 h
# [1] = system: NCI-H460 lung
# [2] = system: LOX IMVI melanoma
# [3] = system: IGROV1 ovarian
# [4] = system: UO-31 renal
# [5] = system: KM12 colon
# [6] = system: SF-295 CNS
# [7] = system: SK-MEL-2 melanoma
# [8] = system: T-47D breast
# [9] = system: MOLT-4 leukemia
# [10] = system: SK-MEL-28 melanoma
# [11] = system: BT-549 breast
# [12] = system: MDA-MB-231 breast
# [13] = system: A549 NSCLC
# [14] = system: SK-OV-3 ovarian
# [15] = system: SNB-19 CNS
# [16] = system: NCI-H226 lung
# [17] = system: K-562 leukemia
# [18] = system: HS 578T breast
# [19] = system: SR leukemia
# [20] = system: PC-3 prostate
# [21] = system: 786-0 renal
# [22] = system: DU-145 prostate
# [23] = system: OVCAR-3 ovarian
# [24] = system: COLO 205 colon
# [25] = system: NCI-H522 lung
# [26] = system: OVCAR-5 ovarian
# [27] = system: SN12C renal
# [28] = system: RXF 393 renal
# [29] = system: RPMI-8226 leukemia
# [30] = system: HCT-116 colon
# [31] = system: SNB-75 CNS
# [32] = system: SK-MEL-5 melanoma
# [33] = system: UACC-62 melanoma
# [34] = system: NCI/ADR-RES ovarian
# [35] = system: HL-60(TB) leukemia
# [36] = system: SF-268 CNS
# [37] = system: HCT-15 colon
# [38] = system: SW-620 colon
# [39] = system: OVCAR-8 ovarian
# [40] = system: SF-539 CNS
# [41] = system: UACC-257 melanoma
# [42] = system: EKVX NSCLC
# [43] = system: U251 CNS
# [44] = system: M14 melanoma
# [45] = system: OVCAR-4 ovarian
# [46] = system: MDA-MB-435
# [47] = system: TK-10 renal
# [48] = system: CAKI-1 renal
# [49] = system: HOP-62 NSCLC
structure (smiles),measurement,setting,value
CC1OC(OC2C(O)C(OCCc3ccc(O)c(O)c3)OC(CO)C2OC(=O)/C=C/c2ccc(O)c(O)c2)C(O)C(O)C1OC1OCC(O)(CO)C1O (stereo not drawn),GI50,[1],96.9 µM
same,TGI,[1],> 100 µM
same,GI50,[2],17.2 µM
same,TGI,[2],35.3 µM
same,GI50,[3],> 100 µM
same,TGI,[3],> 100 µM
same,GI50,[4],> 100 µM
same,TGI,[4],> 100 µM
same,GI50,[5],> 100 µM
same,TGI,[5],> 100 µM
same,GI50,[6],> 100 µM
same,TGI,[6],> 100 µM
same,GI50,[7],> 100 µM
same,TGI,[7],> 100 µM
same,GI50,[8],> 100 µM
same,TGI,[8],> 100 µM
same,GI50,[9],55.6 µM
same,TGI,[9],> 100 µM
same,GI50,[10],> 100 µM
same,TGI,[10],> 100 µM
same,GI50,[11],19.8 µM
same,TGI,[11],42.2 µM
same,GI50,[12],> 100 µM
same,TGI,[12],> 100 µM
same,GI50,[13],> 100 µM
same,TGI,[13],> 100 µM
same,GI50,[14],> 100 µM
same,TGI,[14],> 100 µM
same,GI50,[15],> 100 µM
same,TGI,[15],> 100 µM
same,GI50,[16],> 100 µM
same,TGI,[16],> 100 µM
same,GI50,[17],39.3 µM
same,TGI,[17],> 100 µM
same,GI50,[18],> 100 µM
same,TGI,[18],> 100 µM
same,GI50,[19],52.1 µM
same,TGI,[19],> 100 µM
same,GI50,[20],0.85 µM
same,TGI,[20],> 100 µM
same,GI50,[21],44.6 µM
same,TGI,[21],> 100 µM
same,GI50,[22],30.1 µM
same,TGI,[22],> 100 µM
same,GI50,[23],27.4 µM
same,TGI,[23],> 100 µM
same,GI50,[24],> 100 µM
same,TGI,[24],> 100 µM
same,GI50,[25],> 100 µM
same,TGI,[25],> 100 µM
same,GI50,[26],> 100 µM
same,TGI,[26],> 100 µM
same,GI50,[27],> 100 µM
same,TGI,[27],> 100 µM
same,GI50,[28],> 100 µM
same,TGI,[28],> 100 µM
same,GI50,[29],38.5 µM
same,TGI,[29],> 100 µM
same,GI50,[30],20.3 µM
same,TGI,[30],47.7 µM
same,GI50,[31],> 100 µM
same,TGI,[31],> 100 µM
same,GI50,[32],> 100 µM
same,TGI,[32],> 100 µM
same,GI50,[33],> 100 µM
same,TGI,[33],> 100 µM
same,GI50,[34],89 µM
same,TGI,[34],> 100 µM
same,GI50,[35],69.8 µM
same,TGI,[35],> 100 µM
same,GI50,[36],0.0141 µM
same,TGI,[36],23.7 µM
same,GI50,[37],> 100 µM
same,TGI,[37],> 100 µM
same,GI50,[38],25 µM
same,TGI,[38],57.9 µM
same,GI50,[39],> 100 µM
same,TGI,[39],> 100 µM
same,GI50,[40],24.6 µM
same,TGI,[40],79 µM
same,GI50,[41],> 100 µM
same,TGI,[41],> 100 µM
same,GI50,[42],> 100 µM
same,TGI,[42],> 100 µM
same,GI50,[43],> 100 µM
same,TGI,[43],> 100 µM
same,GI50,[44],> 100 µM
same,TGI,[44],> 100 µM
same,GI50,[45],> 100 µM
same,TGI,[45],> 100 µM
same,GI50,[46],16.1 µM
same,TGI,[46],35.3 µM
same,GI50,[47],> 100 µM
same,TGI,[47],> 100 µM
same,GI50,[48],7.71 µM
same,TGI,[48],> 100 µM
same,GI50,[49],> 100 µM
same,TGI,[49],> 100 µM
